Patent US20150018369A1 (priority 2012, published 2015)

Key:
CB1 = experiment: [3H]-CP55940 binding competition at CB1; set-up: species or system human; settings: FIG. 2c
Experimental: Fragments were amplified from total RNA of cell lines by reverse transcriptase-polymerase chain reaction (RT-PCR). Sequence was confirmed and the fragment was cloned into the EcoRI site of the pIRES2-eGFP-express vector. Cells were grown to approximately 80% confluence in 10 cm cell culture dishes, transfected with the cDNA pIRES-eGFP-vector containing the human CB1 or CB2 receptor using LipofectAMINE™ 2000 reagent in the serum-free media Opti-MEM 1 according to the manufacturer's description. Cells were subject to FACS sorting 48 his after transfection and single cell sorted based on dsRed expression into 96-well plates. Of the dsRed expressing positive clones, 3 were validated for CB1 and CB2 protein expression by radioligand binding analysis (methods discussed below).
Cells were grown to 90% confluence, rinsed twice with 1× PBS and stored at −80° C. until further use. To prepare crude cellular membrane fractions, dishes were removed from −80° C. and thawed at room temperature for 5 min. Once thawed, cells were lysed with ice-cold homogenization buffer (50 mM Tris, 1 mM EDTA, 3 mM MgCl2) and gently scraped from the dish. Total cell lysates from 3-5 dishes were collected on ice in 3 ml of ice-cold homogenization buffer Cells were homogenized at 6,500 rpm (PRO Scientific, Oxford, Conn.) twice for 10 sec and centrifuged at 11,500 rpm for 20 min at 4° C. […]

AI receptors [1] = experiment: GTPγS binding in HEK293 cell homogenates; assay type: biochemical, human
Source text: (§1) When comparing the overall amino acid sequence of GPR124 to that of CB1 and CB2 receptors no significant homology was found. However, when focusing the comparison to the amino acid sequence encoding for the third transmembrane domains of GPR124 and CB2 receptors, 84% homology was found (FIG. 5a). […] Therefore, it is likely that ST-1, ST-11, and other AI compounds interact directly with the third transmembrane domain of GPR124. To determine the signaling mechanism of AI receptors, effect of ST-11 in HEX293 cells, which express GPR124 endogenously and commonly used to study GPCR pharmacology and signaling pathway, was tested.

AI receptors [2] = experiment: cAMP production in HEK293 cells; assay type: cell-based, human
Source text: as §1

[3] = system: AI receptors (mouse microglia in primary culture); experiment: [3H]-WIN55212 binding in mouse microglia
CB2 = CB2 (Homo sapiens, UniProt P34972); experiment: HA-tagged receptor internalization, CB2; assay type: cell-based; set-up: HA; expressed in transfected cells; settings: FIG. 2b
Sequence of CB2 (P34972 whole entry): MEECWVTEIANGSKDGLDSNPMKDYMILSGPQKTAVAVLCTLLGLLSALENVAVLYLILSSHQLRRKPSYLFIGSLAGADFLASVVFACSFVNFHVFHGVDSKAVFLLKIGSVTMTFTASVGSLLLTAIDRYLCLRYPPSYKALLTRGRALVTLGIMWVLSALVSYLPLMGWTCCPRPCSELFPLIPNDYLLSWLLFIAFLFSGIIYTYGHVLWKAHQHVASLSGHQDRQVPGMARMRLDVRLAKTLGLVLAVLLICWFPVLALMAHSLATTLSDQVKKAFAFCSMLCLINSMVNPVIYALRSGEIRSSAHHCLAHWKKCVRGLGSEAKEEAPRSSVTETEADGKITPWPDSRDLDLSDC
Source text: FIGS. 2d and 2e illustrate the co-docking of CP55940 and either WIN55212-2 (d) or ST-11 (e) in hCB1 receptors.

[4] = system: mouse microglia in primary culture; experiment: NO production in mouse microglia; assay type: cell-based
[5] = system: mouse microglia in primary culture; experiment: Cell viability in mouse microglia; assay type: cell-based
[6] = system: mouse microglia in primary culture; experiment: Microglia cell migration; assay type: cell-based
DBT tumors = DBT tumors implanted in BalbC mice; assay type: in vivo, mouse; settings: treated daily over 2 weeks
[7] = Accelerating rotarod, acute toxicity in healthy mice; assay type: in vivo, mouse
Experimental: As an initial step to test the therapeutic efficacy of ST-11 in vivo, the pharmacokinetic profile and acme toxicity profile of ST-11 in healthy mice were determined. FIG. 13 illustrates an LC-MS chromatogram and calibration curve of ST-11 (a & 13). PK profile of ST-11 (c, d, e & f).

[8] = system: mouse microglia in primary culture; experiment: IP production in mouse microglia; assay type: cell-based

CCn1c(C)c(C(=O)c2ccc(C)c3ccccc23)c2ccccc21 [ST-11]
competition for [3H]-CP55940 binding at CB1 (CB1): but not for [^3H]-CP55940 binding
GTPγS binding (AI receptors [1]): activation of GTP[…]S binding
cAMP production (AI receptors [2]): inhibition of cAMP production
competition for [3H]-WIN55212 binding [3]: competed
cross-activation of human CB2 receptors (receptor internalization) (CB2): engage CB2 receptors
NO production [4]: does not stimulate or inhibit
cell viability in microglia [5]: does not
microglia cell migration stimulated by ATP [6]: inhibits
number of lymphocytes in DBT tumors (DBT tumors): increases the number of lymphocytes
number of microglia in DBT tumors (DBT tumors): increases
locomotor activity on an accelerating rotarod [7]: does not influence locomotor activity
IP production [8]: does not stimulate or inhibit IP production
